Here are results for 7 molecules from patent US20240025919A1, “AZA-TETRACYCLIC OXAZEPINE COMPOUNDS AND USES THEREOF” (Genentech, Inc., priority 2022, published 2024).

pIC50: −log10 of the molar value. Read-outs that look alike come from different tables or passages of the source.

One assay concerns the target KRAS G12D (Homo sapiens (Human), UniProt P01116, G12D). As to the kind of experiment: KRAS G12D LoEnz Biochemical Assay, BODIPY-GDP Exchange TR-FRET (SOS1-mediated nucleotide exchange). To be noted: read-out: KRas (G12D) GDP HTRF IC50. Here is the method:
Example 500: KRAS G12D LoEnz Biochemical Assay, BODIPY-GDP Exchange TR-FRET. Biochemical compound potencies are assessed by evaluating inhibition of SOS1I-mediated nucleotide exchange in KRAS G121D. In this assay, the SOS1-promoted exchange of fluorescently-labeled GDP (BOPIDY-GDP) is monitored by time-resolved fluorescence resonance energy transfer (TR-FRET). Compounds solubilized in DMS0 are dispensed as concentration series into 384-well white assay plates. A preformed complex of biotin-tagged recombinant human KRAS (0.06 nM mutant G1 2D) and 0.06 nM terbium-labeled streptavidin (CisBIO) prepared in 10 uL/well assay buffer (20 mM HEPES, pH 7.5, 50 mM NaCl, 10 mMMMgCl2, 0.0100 Tween-20 and 1 mM dithiothreitol) is added and allowed to incubate for 10-minutes at room temperature. The reaction is initiated with the addition of 5 uL 300 nM recombinant human SOS1 and 300 nM BODIPY-GDP in assay buffer. After a 120-minute incubation, the fluorescence is measured with excitation at 337 nm and emission at 490 and 520 nm. The TR-FRET ratio is determined as the fluorescence at 520 nm divided by the fluorescence at 490 nm multiplied by 10,000. The results are normalized to percent inhibition based on control samples: DMSO (0% inhibition) and control compound at a concentration that inhibits completely (100% inhibition). The normalized TR-FRET results are plotted against compound concentration, and the data are fit to a 4-parameter Hill equation to determine the IC50 values.
Background: Time-resolved FRET reads energy transfer from a long-lived donor to a nearby acceptor.

A further assay addresses KRAS WT (Homo sapiens (Human), UniProt P01116). Nature of the assay: KRAS WT Biochemical Assay, BODIPY-GDP Exchange TR-FRET (Example 501; 3 nM KRAS WT, 3 nM SOS1, 60-minute incubation). On the procedure:
Example 501: KRAS WT Biochemical Assay, BODIPY-GDP Exchange TR-FRET. Biochemical compound potencies are assessed by evaluating inhibition of SOS1-mediated nucleotide exchange in KRAS WT. In this assay, the SOS1-promoted exchange of fluorescently-labeled GDP (BOPIDY-GDP) is monitored by time-resolved fluorescence resonance energy transfer (TR-FRET). Compounds solubilized in DMSO are dispensed as concentration series into 384-well white assay plates, and 5 uL assay buffer (20 mM HEPES, pH 7.5, 50 mM NaCl, 10 mM MgCl2, 0.01% Tween-20 and 1 mM dithiothreitol) is added just prior to the start of the assay. A preformed complex of 3 nM biotin-tagged recombinant human KRAS WT and 0.3 nM terbium-labeled streptavidin (CisBIO) prepared in 5 uL/well assay buffer is added and allowed to incubate for 10-minutes at room temperature. The reaction is initiated with the addition of 5 uL 3 nM recombinant human SOS1 and 300 nM BODIPY-GDP in assay buffer. After a 60-minute incubation, the fluorescence is measured with excitation at 337 nm and emission at 490 and 520 nm. The TR-FRET ratio is determined as the fluorescence at 520 nm divided by the fluorescence at 490 nm multiplied by 10,000. The results are normalized to percent inhibition based on control samples: DMSO (0% inhibition) and control compound at a concentration that inhibits completely (100% inhibition). The normalized TR-FRET results are plotted against compound concentration, and the data are fit to a 4-parameter Hill equation to determine the IC50 values.

Setting [1] is: read-out: KRas(wt) GDP HTRF IC50.

Chain of KRAS G12D (P01116-2 other isoform, or with tags, fused parts or gaps G12D): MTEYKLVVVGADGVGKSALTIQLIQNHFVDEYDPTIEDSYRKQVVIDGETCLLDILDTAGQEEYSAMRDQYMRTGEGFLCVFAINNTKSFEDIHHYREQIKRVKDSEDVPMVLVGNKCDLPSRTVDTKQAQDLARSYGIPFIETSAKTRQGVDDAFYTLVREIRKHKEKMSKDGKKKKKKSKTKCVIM
Chain of KRAS WT (P01116-2 other isoform, or with tags, fused parts or gaps): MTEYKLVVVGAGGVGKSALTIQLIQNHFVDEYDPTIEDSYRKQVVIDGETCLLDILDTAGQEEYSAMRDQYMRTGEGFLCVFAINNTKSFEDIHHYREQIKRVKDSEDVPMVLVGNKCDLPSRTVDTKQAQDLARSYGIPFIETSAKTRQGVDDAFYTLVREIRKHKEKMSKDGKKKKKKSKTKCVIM

By pIC50 is commonly meant the negative decadic logarithm of the IC50, by convention in mol/L. On to `Cc1nc(N)cc(-c2nc3c4c(nc(OCC56CCCN5CC(F)C6)nc4c2F)N2CC4CCC(N4)[C@H]2[C@@H](C(F)(F)F)O3)c1C(F)(F)F` (stereo in doubt) [Compound 243, 4-((6R,9S)-1-fluoro-12-(((2S,7aR)-2-fluorotetrahydro-1H-pyrrolizin-7a(5H)-yl)methoxy)-5-(trifluoromethyl)-5a,6,7,8,9,10-hexahydro-5H-4-oxa-3,10a,11,13,14-pentaaza-6,9-methanonaphtho[1,8-ab]heptalene-2-yl)-6-methyl-5-(trifluoromethyl)pyridin-2-amine], for which the pIC50 at KRAS G12D is 6.24; at KRAS WT (read-out: KRas HTRF IC50), 5.40.

On to `Oc1cc(-c2nc3c4c(nc(OC[C@@]56CCCN5C[C@H](F)C6)nc4c2F)N2C[C@H]4CC[C@H](N4)[C@H]2CO3)c2c(F)cccc2c1` [Compound 1, 5-Fluoro-4-((5aS,6S,9R)-1-fluoro-12-(((2R,7aS)-2-fluorotetrahydro-1H-pyrrolizin-7a(5H)-yl)methoxy)-5a,6,7,8,9,10-hexahydro-5H-4-oxa-3,10a,11,13,14-pentaaza-6,9-methanonaphtho[1,8-ab]heptalen-2-yl)naphthalen-2-ol], for which the pIC50 at KRAS G12D is 9.92; on KRAS WT (setting [1]) it was 8.09.

For `Cn1ncc2ccc(F)c(-c3nc4c5c(nc(OC[C@@]67CCCN6C[C@H](F)C7)nc5c3F)N3C[C@H]5CC[C@H](N5)[C@H]3CO4)c21` [Compound 4, (5aS,6S,9R)-1-fluoro-2-(6-fluoro-1-methyl-1H-indazol-7-yl)-12-(((2R,7aS)-2-fluorotetrahydro-1H-pyrrolizin-7a(5H)-yl)methoxy)-5a,6,7,8,9,10-hexahydro-5H-4-oxa-3,10a,11,13,14-pentaaza-6,9-methanonaphtho[1,8-ab]heptalene], the pIC50 was 6.05 at KRAS G12D and 5.02 on KRAS WT (setting [1]).

As to `CCc1cccc2cc(O)cc(-c3nc4c5c(nc(OC[C@@]67CCCN6C[C@H](F)C7)nc5c3F)N3C[C@H]5CC[C@H](N5)[C@H]3CO4)c12` [Compound 5, 5-ethyl-4-((5aS,6S,9R)-1-fluoro-12-(((2R,7aS)-2-fluorotetrahydro-1H-pyrrolizin-7a(5H)-yl)methoxy)-5a,6,7,8,9,10-hexahydro-5H-4-oxa-3,10a,11,13,14-pentaaza-6,9-methanonaphtho[1,8-ab]heptalen-2-yl)naphthalen-2-ol], the pIC50 at KRAS G12D was 10.22; at KRAS WT (setting [1]), 8.67.

In the case of `C[C@@H]1Oc2nc(-c3cccc4cccc(Cl)c34)c(F)c3nc(OC[C@@]45CCCN4C[C@H](F)C5)nc(c23)N2C[C@H]3CC[C@H](N3)[C@@H]12` [Compound 8, (5S,5aS,6S,9R)-2-(8-chloronaphthalen-1-yl)-1-fluoro-12-(((2R,7aS)-2-fluorotetrahydro-1H-pyrrolizin-7a(5H)-yl)methoxy)-5-methyl-5a,6,7,8,9,10-hexahydro-5H-4-oxa-3,10a,11,13,14-pentaaza-6,9-methanonaphtho[1,8-ab]heptalene], the pIC50 at KRAS G12D is 8.75; at KRAS WT (setting [1]) it was 6.84.

Regarding `C[C@@H]1Oc2nc(-c3cccc(N)c3F)c(F)c3nc(OC[C@@]45CCCN4C[C@H](F)C5)nc(c23)N2C[C@H]3CC[C@H](N3)[C@@H]12` [Compound 12, 2-fluoro-3-((5S,5aS,6S,9R)-1-fluoro-12-(((2R,7aS)-2-fluorotetrahydro-1H-pyrrolizin-7a(5H)-yl)methoxy)-5-methyl-5a,6,7,8,9,10-hexahydro-5H-4-oxa-3,10a,11,13,14-pentaaza-6,9-methanonaphtho[1,8-ab]heptalen-2-yl)aniline], the results for the pIC50 on KRAS G12D and on KRAS WT (setting [1]) were 6.42 and 4.43, respectively.

As to `C[C@@H]1Oc2nc(-c3cc(N)c(F)cc3C(F)(F)F)c(F)c3nc(OC[C@@]45CCCN4C[C@H](F)C5)nc(c23)N2C[C@H]3CC[C@H](N3)[C@@H]12` [Compound 14, 2-fluoro-5-((5S,5aS,6S,9R)-1-fluoro-12-(((2R,7aS)-2-fluorotetrahydro-1H-pyrrolizin-7a(5H)-yl)methoxy)-5-methyl-5a,6,7,8,9,10-hexahydro-5H-4-oxa-3,10a,11,13,14-pentaaza-6,9-methanonaphtho[1,8-ab]heptalen-2-yl)-4-(trifluoromethyl)aniline], the pIC50 on KRAS G12D was 9.59; on KRAS WT (setting [1]) it was 8.18.
